Results on two molecules are retold here after patent publication US10905735B2 (priority 2016, dated 2021).

Where two headings read alike, the source gives them in different places. Bridge positions count the residues as written; N and C are the ends. Peptide text beside a SMILES is read from it. Bounds are passed on as bounds.

For series [1], the system named is Staphylococcus aureus Newman strain. The settings on record: 5 mg/kg body weight, injected 30 minutes after infection; versus aseptic water control; one week.
Description: 1) Preparation of Staphylococcus aureus Newman Solution
Newman monoclonal strain with hemolytic circles is selected, 3 mL BHI medium is inoculated with the strain, and the strain is shook overlight at a speed of 220 rpm and a temperature of 37° C.
1 mL overnight strain is centrifuged at a speed of 5000 rpm for 2 min, and the supernatant is removed.
20 mL aseptic PBS is added for resuspension at a speed of 5000 rpm for 5 min, and the supernatant is removed.
5 mL aseptic PBS resuspended bacteria is diluted to OD600=0.
2) Establishment of Model of Bacteremia and Determination of Polypeptide Activity in BALB/c Mice
BALB/c mice (female, 8 weeks) are subjected to intraperitoneal injection of anesthetic (1% pentobarbital) (200 μL for each mouse).
Newman solution (OD600=0.2, 100 μL for each mouse) is injected into retrobulbar venous plexus.
After 30 minutes of infection, 6 mice are injected with polypeptide at enterocoelia (0.5 mg/mL, 200 μL for each mouse) and 7 mice in control are injected with sterile water (200 μL for each mouse).
The times of the mouse in one week are recorded and used for drawing survival curves.
Series [2] deals with production of the toxins of Staphylococcus aureus 04018 strain (MDBK cells readout). In kind it is cell-based. The note with it: for Cell survival (%) / inhibitory effect on the production of the toxins of Staphylococcus aureus (in words): MDBK cells; for MDBK cell OD (M ± SD): OD 595 nm, MTT; for inhibitory effect on the production of the toxins of Staphylococcus aureus (in words): peptide in normal saline (MRK as suspension). The protocol:
For the determination method for inhibitory level on the toxins of Staphylococcus aureus, please refer to literatures. (Yang G, et al. A novel peptide screened by phage display can mimic TRAP antigen epitope against Staphylococcus aureus infections. J Biol. Chem. 2005, 280: 27431-27435), details are as follows:
1) Staphylococcus aureus strain 04018 frozen in refrigerator is scribbed to a blood plate or BHI plate; cultured in an incubator for 16 hours until monoclonal colony is observed in the plate, and placed in a 4° C. refrigerator for standby use.
2) After 8 hours, the monoclonal colony in the plate is randomly selected, 25 mL test tubes of the BHI medium is inoculated with the monoclonal colony; and then the two test tubes are shook in a shaking table at a temperature of 37° C. at a speed of 200 rpm, the bacteria are collected after 16 hours, the bacteria solution in the two test tubes are mixed evenly for standby use.
3) The chemosynthetic peptide MRK and MRG and the positive control (the toxins of Staphylococcus aureus inhibitor protein TP) are dissolved in normal saline, diluted to different concentrations, and added to bacteria BHI medium. The final concentrations of small peptides are 0, 1.5, 5, 15, 50, 150 and 500 μg/mL respectively. The solvent control is the same amount of normal saline; the negative control is the BHI medium of Staphylococcus aureus; and a normal cell control is also provided.
4) The chemosynthetic peptides of different concentrations are co-incubated with Staphylococcus aureus 04018 and cultured for 6 hours, and then bacteria are collected. 700 μL bacterial suspensions are added to EP tubes, centrifuged at 8000 rpm for 5 min, supernatants are obtained, boiled at a temperature of 100° C. for 7 min, and centrifuged at a speed of 14000 rpm for 10 min. 10 μL supernatants are taken, added into a 96-microwell cell culture plate inoculated with 1×10<5>/mL MDBK cells. After continuous culture for 18-20 hours, 5 μL MTT solution (5 mg/mL) is added to each microwell, 100 μL 10% SDS+0.01M HCl solution is added to each microwell after 3 hours. After culture in the incubator at a temperature of 37° C. for 20 hours, detection at 595 nm and reading are carried out by an enzyme-linked immunometricmeter.

With “CH3(CH2)10CO-Gly-Cyclo(Cys-Gln-His-D-Trp-Trp-His-Trp-Tyr-Cys)-Arg-Arg-Arg-NH2 [MRG]”, the “death / survival rate in bacteremia (in words)” value in series [1] is “survival rate is greatly improved”. The “inhibitory effect on toxin production compared with TP protein (positive control)” value in series [2] (5 μg/mL small peptide) is reported as “greater than that of TP protein”. Further, the results for the “Cell survival (%)” value in series [2] (0.005 mg/mL peptide), in series [2] (0.05 mg/mL peptide) and in series [2] (0.15 mg/mL peptide) were 60%, 92% and 96%, respectively. In addition, the figures for the “MDBK cell OD (M ± SD)” value in series [2] (0.005 mg/mL peptide), in series [2] (0.05 mg/mL peptide) and in series [2] (0.15 mg/mL peptide) were 0.296 ± 0.001, 0.454 ± 0.015 and 0.473 ± 0.004, respectively. Further, in series [2], the “inhibitory effect on the production of the toxins of Staphylococcus aureus (in words)” value was “obvious protective effect on the proliferation inhibition of MDBK cells”.
The molecule `NC(=O)CC[C@@H]1NC(=O)[C@@H](N)CSSC[C@@H](C(=O)O)NC(=O)[C@H](Cc2ccc(O)cc2)NC(=O)[C@H](Cc2c[nH]c3ccccc23)NC(=O)[C@H](Cc2c[nH]cn2)NC(=O)[C@H](Cc2c[nH]c3ccccc23)NC(=O)[C@H](Cc2c[nH]c3ccccc23)NC(=O)[C@H](Cc2c[nH]cn2)NC1=O` [MRK, CQHWWHWYC] (H-CQHWWHWYC-OH; disulfide 1-9) showed a solubility of under 100 µg/mL. Also, in series [1], the “death / survival rate in bacteremia (in words)” value is “good inhibitory effect on Staphylococcus aureus infection in vivo”. In series [2] (0.005 mg/mL peptide), the “Cell survival (%)” value is reported as 25% and the “MDBK cell OD (M ± SD)” value turned out to be 0.123 ± 0.011. Besides, in series [2] (0.05 mg/mL peptide), the “Cell survival (%)” value came to 20% and the “MDBK cell OD (M ± SD)” value came to 0.098 ± 0.014. For the same molecule, in series [2] (0.15 mg/mL peptide), the “Cell survival (%)” value stood at 35% and the “MDBK cell OD (M ± SD)” value worked out at 0.171 ± 0.001. For the same molecule, the “inhibitory effect on the production of the toxins of Staphylococcus aureus (in words)” value in series [2] was “could not inhibit the production of the toxins”.

What is called solubility is the concentration that dissolves in the medium under given conditions. A high value points to much dissolved substance.
